In data set [1] the test system is E. coli ΔtolC. The data set can be described thus: MIC determination. Format: cell-based. To be noted: Escherichia coli, read-out: MIC E. coli ΔtolC.
Data set [2] has as its system E. coli WT DSM-1116. The data set can be described thus: MIC determination. Format: cell-based. Conditions: Escherichia coli, DSM1116, read-out: MIC E. coli WT, DSM-1116.
In data set [3] the test system is P. aeruginosa ΔmexAB (PA14ΔmexAB). Put plainly: MIC determination. Format: cell-based. Conditions: Pseudomonas aeruginosa, read-out: MIC P. aeruginosa ΔmexAB.
For data set [4], the system named is P. aeruginosa WT PA14. Put plainly: MIC determination. Format: cell-based, Pseudomonas aeruginosa. Conditions: for MIC: Pseudomonas aeruginosa, PA14, read-out: MIC P. aeruginosa WT, PA14.
Data set [5] has as its system S. aureus ATCC29213. Put plainly: MIC determination. Conditions: Staphylococcus aureus, ATCC29213, read-out: MIC S. aureus, ATCC29213. Format: cell-based.
The target in data set [6] is T1, E. coli gyrase (Escherichia coli, UniProt P0AES4). The data set can be described thus: DNA gyrase supercoiling assay, method a. Format: biochemical.
Data set [7] is classed as physicochemical.
Data set [8] relates to E. coli WT-3. The data set can be described thus: MIC determination, larger panel. Format: cell-based. Conditions: Escherichia coli, WT3, read-out: MIC E. coli WT-3.
In data set [9] the test system is E. cloacae DSM-30054. The data set can be described thus: MIC determination, larger panel. Format: cell-based. To be noted: Enterobacter cloacae, DSM30054, read-out: MIC E. cloacae.
The subject of data set [10] is K. pneumoniae DSM-30104. The data set can be described thus: MIC determination, larger panel. Format: cell-based. To be noted: Klebsiella pneumoniae, DSM30104, read-out: MIC K. pneumoniae.
The subject of data set [11] is S. marcescens DSM-30121. The data set can be described thus: MIC determination, larger panel. Conditions: Serratia marcescens, DSM30121, read-out: MIC S. marcescens. Format: cell-based.
Data set [12] deals with P. mirabilis DSM-4479. Put plainly: MIC determination, larger panel. Format: cell-based. Conditions: Proteus mirabilis, DSM4479, read-out: MIC P. mirabilis.
Data set [13] concerns E. aerogenes DSM-30053. The data set can be described thus: MIC determination, larger panel. Format: cell-based, Enterobacter aerogenes. To be noted: Klebsiella aerogenes, DSM30053, read-out: MIC E. aerogenes.
In data set [14] the test system is P. aeruginosa ESBL 1 DSM-24600. The data set can be described thus: MIC determination, larger panel. Format: cell-based. To be noted: Pseudomonas aeruginosa, DSM24600, read-out: MIC P. aeruginosa ESBL 1.
Data set [15] has as its system P. aeruginosa ESBL 2 DSM-46316. The data set can be described thus: MIC determination, larger panel. Format: cell-based. To be noted: Pseudomonas aeruginosa, DSM46316, read-out: MIC P. aeruginosa ESBL 2.
In data set [16] the target is T1, E. coli gyrase. Put plainly: DNA gyrase supercoiling assay, method b. Format: biochemical. To be noted: compared to 22.
The test system of data set [17] is E. faecalis ATCC-29212. The data set can be described thus: MIC determination, larger panel. Format: cell-based. To be noted: Enterococcus faecalis, ATCC29212, read-out: MIC E. faecalis.
Data set [18] concerns A. baumannii DSM-30008. The data set can be described thus: MIC determination, larger panel. To be noted: Acinetobacter baumannii, DSM30008, read-out: MIC A. baumannii, DSM-30008. Format: cell-based.

Values after ≈ are worked out from the molar mass of the structure shown.

T1 sequence (P0AES4 whole entry): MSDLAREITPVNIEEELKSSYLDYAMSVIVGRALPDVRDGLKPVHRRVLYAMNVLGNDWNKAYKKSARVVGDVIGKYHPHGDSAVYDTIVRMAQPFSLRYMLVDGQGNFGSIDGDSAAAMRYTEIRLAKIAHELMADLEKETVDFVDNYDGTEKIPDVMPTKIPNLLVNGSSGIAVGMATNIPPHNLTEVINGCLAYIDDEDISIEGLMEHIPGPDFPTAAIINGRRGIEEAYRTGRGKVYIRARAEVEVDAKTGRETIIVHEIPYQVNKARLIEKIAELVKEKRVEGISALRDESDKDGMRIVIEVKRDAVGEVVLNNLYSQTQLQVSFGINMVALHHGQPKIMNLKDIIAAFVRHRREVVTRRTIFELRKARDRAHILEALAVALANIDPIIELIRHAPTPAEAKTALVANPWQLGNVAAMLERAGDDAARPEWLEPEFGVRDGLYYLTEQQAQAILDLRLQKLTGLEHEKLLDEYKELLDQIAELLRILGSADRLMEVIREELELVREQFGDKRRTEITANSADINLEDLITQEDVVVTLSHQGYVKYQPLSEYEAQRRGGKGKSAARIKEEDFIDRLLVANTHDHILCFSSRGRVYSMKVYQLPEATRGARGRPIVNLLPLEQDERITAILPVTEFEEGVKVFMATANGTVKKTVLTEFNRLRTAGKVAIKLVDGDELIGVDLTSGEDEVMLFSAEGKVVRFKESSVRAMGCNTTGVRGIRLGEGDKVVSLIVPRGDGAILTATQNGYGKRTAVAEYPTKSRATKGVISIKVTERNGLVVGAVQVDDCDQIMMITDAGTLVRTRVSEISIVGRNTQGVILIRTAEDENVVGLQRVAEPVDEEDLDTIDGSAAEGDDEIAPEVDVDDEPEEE

As usually defined, the MIC is the lowest concentration that inhibits growth of the organism. A word on the IC50: it is the point on the concentration scale where inhibition reaches its midpoint. As usually defined, the pKa is the negative logarithm of the acid dissociation constant. With `CC(C)Oc1c(NC(=O)c2ccc(NC(=O)[C@H](CC(N)=O)NC(=O)c3ccc(NC(=O)c4ccc([N+](=O)[O-])cc4)cc3)cc2)ccc(C(=O)Nc2ccc(C(=O)O)cc2)c1O` [Compound 4], the minimal inhibitory concentration (MIC) in data set [1] was 0.125 µg/mL (≈ 0.15 µM); in [2], 1 µg/mL (≈ 1.2 µM); in data set [3], 1 µg/mL (≈ 1.2 µM); in data set [4] it was more than 64 µg/mL; in [5] it was 1 µg/mL (≈ 1.2 µM). In addition, in data set [4] (PA14), the “MIC P. aeruginosa WT” value is more than 64 µg/mL. Moreover, in [6], the IC50 stood at 0.11 µM. In data set [7], the pKa was less than 8.
In the case of `CC(C)Oc1c(NC(=O)c2ccc(NC(=O)[C@H](CC(N)=O)NC(=O)c3ccc(NC(=O)c4ccc(C#N)s4)cc3)cc2)ccc(C(=O)Nc2ccc(C(=O)O)cc2)c1O` [Compound 32], the MIC in [8] is 1 µg/mL (≈ 1.22 µM); in data set [9], more than 64 µg/mL; in [10], more than 64 µg/mL; in data set [11], more than 64 µg/mL; in data set [12] it was more than 64 µg/mL.
Turning to `C/C(=C\c1ccc(O)cc1)C(=O)Nc1ccc(C(=O)N[C@@H](CC(N)=O)C(=O)Nc2ccc(C(=O)Nc3ccc(C(=O)Nc4ccc(C(=O)O)cc4)c(O)c3OC(C)C)cc2)cc1` [Compound 45], the MIC in data set [8] was 0.125 µg/mL (≈ 0.148 µM); in data set [13], 1 µg/mL (≈ 1.19 µM); in [9] it was more than 64 µg/mL; in data set [14] it was more than 64 µg/mL; in [15] it was 2 µg/mL (≈ 2.37 µM); in data set [10], more than 64 µg/mL. Further, the minimal inhibitory concentration (MIC) is 64 µg/mL (≈ 75.9 µM) in data set [11] and 2 µg/mL (≈ 2.37 µM) in [12].
`Cn1cc(NC(=O)C(CC(N)=O)NC(=O)c2ccc(NC(=O)c3ccc(C#N)cc3)cc2)cc1-c1nc2ccc(C(=O)Nc3ccc(C(=O)O)cc3)c(O)c2[nH]1` (stereo not shown) [Compound 56]: in data set [6], the IC50 stood at 10.9 µM. In addition, the “fold decrease of gyrase inhibition” value in data set [16] is “approximately 100 fold”.
For `CC(C)Oc1c(NC(=O)c2ccc(NC(=O)c3ccc(NC(=O)[C@H](CC(N)=O)NC(=O)c4ccc(NC(=O)c5ccc(C#N)cn5)cc4)cc3)c(OC(C)C)c2O)ccc(C(=O)O)c1O` [Compound 80], the MIC is not above 0.03 µg/mL in data set [1]; 0.06 µg/mL (≈ 0.0677 µM) in data set [2]; 0.5 µg/mL (≈ 0.564 µM) in data set [3]; more than 64 µg/mL in data set [4]; not above 0.03 µg/mL in data set [5]; not above 0.03 µg/mL in data set [17]. Also, the minimal inhibitory concentration (MIC) is 0.25 µg/mL (≈ 0.282 µM) in data set [18]; 0.5 µg/mL (≈ 0.564 µM) in [8]; 1 µg/mL (≈ 1.13 µM) in data set [13]; more than 64 µg/mL in data set [9]; more than 64 µg/mL in [14]; more than 64 µg/mL in [15]. In addition, in data set [11], the MIC was more than 64 µg/mL.
In the case of `CC(C)Oc1c(NC(=O)c2ccc(NC(=O)c3ccc(NC(=O)[C@H](CC(N)=O)NC(=O)c4ccc(NC(=O)c5ccc(C#N)s5)cc4)cc3)c(OC(C)C)c2O)ccc(C(=O)O)c1O` [Compound 81], the minimal inhibitory concentration (MIC) in data set [1] was 0.06 µg/mL (≈ 0.0673 µM); in data set [2] it was 0.125 µg/mL (≈ 0.14 µM); in data set [3], 2 µg/mL (≈ 2.24 µM); in [4], more than 64 µg/mL; in data set [5] it was 0.06 µg/mL (≈ 0.0673 µM); in data set [17], not above 0.03 µg/mL. Moreover, the minimum inhibitory concentration (MIC) in data set [18] was 1 µg/mL (≈ 1.12 µM); in [8] it was 0.5 µg/mL (≈ 0.561 µM); in [13] it was 1 µg/mL (≈ 1.12 µM); in data set [9], more than 64 µg/mL; in data set [14], more than 64 µg/mL; in [15] it was more than 64 µg/mL. Also, the MIC in data set [10] is 1 µg/mL (≈ 1.12 µM); in data set [11], more than 64 µg/mL; in data set [12], more than 64 µg/mL.
On to `O=C(O)c1cn(C2CC2)c2cc(N3CCNCC3)c(F)cc2c1=O` [ciprofloxacin, reference compound], for which the MIC came to 1 µg/mL (≈ 3.02 µM) in data set [17], 0.32 µg/mL (≈ 0.966 µM) in data set [18], 8 µg/mL (≈ 24.1 µM) in data set [14] and 0.06 µg/mL (≈ 0.181 µM) in data set [12].

(Values after publication PMC8148378 (Chemical Science, 2019).)
